{"source": "patent US9993449B2", "about": "“(S)-3-amino-4-(difluoromethylenyl)cyclopent-1-ene-1-carboxylic acid, and related compounds as GABA aminotransferase inactivators for the treatment of epilepsy, addiction and hepatocellular carcinoma” (NORTHWESTERN UNIVERSITY, priority 2015, dated 2018)", "key": {"[1]": {"molecular_target": "T1, CYP2B6 (Homo sapiens, UniProt P20813)", "T1 construct": "tissue Eurofins Panlabs; host or cells: human liver microsomes", "T1 sequence (P20813 1-491)": "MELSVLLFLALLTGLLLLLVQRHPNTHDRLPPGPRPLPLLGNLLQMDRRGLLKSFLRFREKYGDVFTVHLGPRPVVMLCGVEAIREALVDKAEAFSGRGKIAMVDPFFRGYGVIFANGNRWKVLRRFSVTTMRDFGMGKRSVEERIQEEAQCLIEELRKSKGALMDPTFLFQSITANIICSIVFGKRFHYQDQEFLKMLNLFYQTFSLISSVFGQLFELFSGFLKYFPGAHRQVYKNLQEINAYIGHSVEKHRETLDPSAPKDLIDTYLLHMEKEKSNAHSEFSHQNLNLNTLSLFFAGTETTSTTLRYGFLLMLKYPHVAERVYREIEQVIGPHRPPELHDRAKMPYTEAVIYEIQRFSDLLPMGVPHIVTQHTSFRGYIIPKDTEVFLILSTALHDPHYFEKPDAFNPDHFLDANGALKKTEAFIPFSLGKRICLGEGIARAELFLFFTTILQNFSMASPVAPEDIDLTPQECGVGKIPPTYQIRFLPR", "test": "CYP2B6 inhibition (HLM, bupropion substrate)", "assay_type": "in vitro ADME", "details": "10 μM, 10 min at 37° C.", "method": "(§1) Inhibition of Microsomal Cytochromes P450. The experiments were performed by Eurofins Panlabs (Redmond, Wash. 98052, USA). CYP1A inhibition (HLM, phenacetin substrate), CYP2B6 inhibition (HLM, bupropion substrate), CYP2C8 inhibition (HLM, paclitaxel substrate), CYP2C9 inhibition (HLM, diclofenac substrate), CYP2C19 inhibition (HLM, omeprazole substrate), CYP2D6 inhibition (HLM, dextromethorphan substrate), and CYP3A inhibition (HLM, midazolam and testosterone substrates) were tested. The test concentration was 10 μM. The incubation time was 10 min at 37° C. The detection method was by HPLC-MS/MS. The experiments were duplicated, and the % inhibition of the control values was averaged (FIG. 8)."}, "[2]": {"molecular_target": "T2, ornithine aminotransferase (OAT) (Homo sapiens, UniProt P04181)", "T2 sequence (P04181 26-439)": "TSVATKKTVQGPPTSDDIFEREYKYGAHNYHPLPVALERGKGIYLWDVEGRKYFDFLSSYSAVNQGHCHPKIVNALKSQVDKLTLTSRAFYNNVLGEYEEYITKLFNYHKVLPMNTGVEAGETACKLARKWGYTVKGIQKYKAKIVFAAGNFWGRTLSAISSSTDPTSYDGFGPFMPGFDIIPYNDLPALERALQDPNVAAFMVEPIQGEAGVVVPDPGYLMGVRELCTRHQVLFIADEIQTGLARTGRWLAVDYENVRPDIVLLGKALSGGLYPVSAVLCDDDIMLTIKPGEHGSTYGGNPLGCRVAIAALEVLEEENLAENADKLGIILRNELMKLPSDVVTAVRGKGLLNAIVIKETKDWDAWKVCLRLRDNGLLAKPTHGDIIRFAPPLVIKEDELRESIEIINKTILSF", "details": "read-out: KI for inactivation of OAT", "description": "All assays were performed in duplicate, and the remaining OAT activity at each preincubation time at each inhibitor concentration was averaged. The natural logarithm of the percentage of the remaining OAT activity was plotted against the preincubation time at each inhibitor concentration to obtain the kobs (slope) value for each concentration. The kobs is the rate constant describing the inactivation at each inhibitor concentration. kobs is replotted against the inhibitor concentration using nonlinear regression analysis (GraphPad Prism 6™; GraphPad Software Inc.). KI and kinact were estimated from equation (3):"}, "[3]": {"tested_on": "striatal dopamine levels", "test": "MicroPET imaging with 11C-raclopride: cocaine- or nicotine-induced dopamine elevation in freely moving rats", "assay_type": "in vivo, rat", "method": "Drug addiction results from the release of dopamine in the NAcc when an addictive substance is ingested. The effect of 1 on the release of dopamine in freely moving rats was determined using in vivo micropositron emission tomography (microPET) imaging (FIG. 10). (Dewey, S. L.; Morgan, A. E.; Ashby, C. R.; Horan, B.; Kushner, S. A.; Logan, J.; Volkow, N. D.; Fowler, J. S.; Gardner, E. L.; Brodie, J. D. Synapse 1998, 30 (2), 119-129). […] MicroPET was used to measure the dissociation of the tracer [^11C]-raclopride from dopamine receptors caused by either cocaine- or nicotine-induced increases in synaptic dopamine levels (the same images were obtained with cocaine and nicotine). When animals received cocaine (n=8) or nicotine (n=6), striatal dopamine levels were rapidly elevated. (Dewey, S. L.; Chaurasia, C. S.; Chen, C. E.; Volkow, N. D.; Clarkson, F. A.; Porter, S. P.; Straughter-Moore, R. M.; Alexoff, D. L.; Tedeschi, D.; Russo, N. B.; Fowler, J. S.; Brodie, J. D. Synapse 1997, 25 (4), 393-398). […] Therefore, 1 blocks both cocaine- and nicotine-induced elevations in dopamine.\nMicroPET imaging. Adult male rats (Sprague-Dawley, 200-250 grams, n =16) were obtained from Taconic Farms. Animals were maintained on a 12/12 light-dark cycle. Scanning was performed using a Siemen's Inveon. All emission scans were corrected for attenuation. Animals received baseline microPET scans using either ^11C-raclopride or ^18FDG as described previously. (Patel, V. D.; Lee, D. E.; Alexoff, D. L.; Dewey, S. L.; Schiffer, W. K. Neuroimage 2008, 41 (3), 1051-1066.) Uptake of both radiotracers occurred while animals were awake and freely moving. Immediately prior to microPET scanning, all animals were anesthetized and maintained under isoflurane."}, "[4]": {"molecular_target": "T3, CYP2C19 (Homo sapiens, UniProt P33261)", "T3 construct": "tissue Eurofins Panlabs; host or cells: human liver microsomes", "T3 sequence (P33261 whole entry)": "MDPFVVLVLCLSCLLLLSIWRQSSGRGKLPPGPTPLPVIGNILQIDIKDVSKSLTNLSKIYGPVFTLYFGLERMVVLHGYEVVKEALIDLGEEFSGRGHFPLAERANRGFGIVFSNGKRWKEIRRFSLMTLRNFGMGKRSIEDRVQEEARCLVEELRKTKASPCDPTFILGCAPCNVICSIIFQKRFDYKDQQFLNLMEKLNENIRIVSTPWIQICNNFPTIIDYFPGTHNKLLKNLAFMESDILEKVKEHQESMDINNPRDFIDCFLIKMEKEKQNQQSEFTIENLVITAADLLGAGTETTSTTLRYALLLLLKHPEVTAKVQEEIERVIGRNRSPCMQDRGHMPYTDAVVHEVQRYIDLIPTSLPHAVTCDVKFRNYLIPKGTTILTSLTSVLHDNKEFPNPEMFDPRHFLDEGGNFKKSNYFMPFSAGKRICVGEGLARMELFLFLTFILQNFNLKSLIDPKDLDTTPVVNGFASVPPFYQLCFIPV", "test": "CYP2C19 inhibition (HLM, omeprazole substrate)", "assay_type": "in vitro ADME", "details": "10 μM, 10 min at 37° C.", "method": "as §1"}, "[5]": {"test": "Plasma protein binding", "assay_type": "in vitro ADME"}, "[6]": {"molecular_target": "T4, CYP2D6 (Homo sapiens, UniProt P10635)", "T4 construct": "tissue Eurofins Panlabs; host or cells: human liver microsomes", "T4 sequence (P10635 whole entry)": "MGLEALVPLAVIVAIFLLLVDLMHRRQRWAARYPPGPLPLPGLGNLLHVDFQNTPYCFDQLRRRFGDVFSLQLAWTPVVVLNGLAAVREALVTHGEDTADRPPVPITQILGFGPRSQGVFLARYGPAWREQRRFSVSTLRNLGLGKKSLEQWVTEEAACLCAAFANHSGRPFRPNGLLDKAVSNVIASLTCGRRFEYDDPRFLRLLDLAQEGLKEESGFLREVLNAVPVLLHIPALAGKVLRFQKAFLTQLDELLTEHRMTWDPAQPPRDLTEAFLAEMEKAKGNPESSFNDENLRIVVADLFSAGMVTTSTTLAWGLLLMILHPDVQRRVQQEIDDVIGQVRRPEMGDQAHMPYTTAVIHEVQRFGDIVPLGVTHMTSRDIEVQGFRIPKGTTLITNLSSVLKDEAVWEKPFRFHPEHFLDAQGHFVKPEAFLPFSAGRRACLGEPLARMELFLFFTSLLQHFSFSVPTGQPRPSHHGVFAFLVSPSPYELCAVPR", "test": "CYP2D6 inhibition (HLM, dextromethorphan substrate)", "assay_type": "in vitro ADME", "details": "10 μM, 10 min at 37° C.", "method": "as §1"}, "[7]": {"test": "Metabolic stability in human liver microsomes (LC-MS/MS)", "assay_type": "in vitro ADME", "details": "for 90 min", "method": "This was accomplished by incubating 1 with the microsomes and monitoring its disappearance with time using LC-MS/MS. Terfenadine was run in similar condition as a positive control."}, "[8]": {"molecular_target": "T5, hERG channel (Homo sapiens, UniProt Q12809)", "T5 construct": "host or cells: CHO-K1", "T5 sequence (Q12809 whole entry)": "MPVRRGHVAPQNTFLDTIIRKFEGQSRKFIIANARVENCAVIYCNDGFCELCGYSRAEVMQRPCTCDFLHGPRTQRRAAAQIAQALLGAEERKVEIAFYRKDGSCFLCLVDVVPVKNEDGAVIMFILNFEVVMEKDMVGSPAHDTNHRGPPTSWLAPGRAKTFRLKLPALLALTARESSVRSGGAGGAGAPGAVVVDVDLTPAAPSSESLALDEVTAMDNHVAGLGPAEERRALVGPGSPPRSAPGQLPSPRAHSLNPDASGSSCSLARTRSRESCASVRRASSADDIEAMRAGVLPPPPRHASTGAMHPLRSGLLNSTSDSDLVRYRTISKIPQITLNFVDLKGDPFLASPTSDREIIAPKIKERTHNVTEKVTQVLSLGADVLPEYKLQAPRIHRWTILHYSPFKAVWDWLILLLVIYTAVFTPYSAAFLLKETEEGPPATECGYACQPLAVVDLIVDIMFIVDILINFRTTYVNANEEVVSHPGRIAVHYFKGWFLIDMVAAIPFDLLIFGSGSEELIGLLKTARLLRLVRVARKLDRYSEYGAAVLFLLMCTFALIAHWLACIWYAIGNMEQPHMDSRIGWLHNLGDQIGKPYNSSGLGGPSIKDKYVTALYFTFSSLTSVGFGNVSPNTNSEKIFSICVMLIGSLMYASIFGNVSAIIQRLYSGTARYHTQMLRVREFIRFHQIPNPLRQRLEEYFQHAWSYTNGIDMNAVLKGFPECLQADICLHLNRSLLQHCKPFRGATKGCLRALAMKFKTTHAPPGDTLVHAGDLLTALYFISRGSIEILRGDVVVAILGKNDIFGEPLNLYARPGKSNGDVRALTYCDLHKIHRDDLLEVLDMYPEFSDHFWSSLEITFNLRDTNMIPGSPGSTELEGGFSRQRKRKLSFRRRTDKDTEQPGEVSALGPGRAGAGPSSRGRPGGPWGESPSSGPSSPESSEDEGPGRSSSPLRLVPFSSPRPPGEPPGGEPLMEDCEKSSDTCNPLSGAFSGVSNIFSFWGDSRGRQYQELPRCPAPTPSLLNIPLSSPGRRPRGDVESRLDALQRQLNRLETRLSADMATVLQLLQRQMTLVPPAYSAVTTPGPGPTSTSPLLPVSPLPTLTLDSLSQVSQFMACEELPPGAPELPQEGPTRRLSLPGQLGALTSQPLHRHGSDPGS", "test": "Inhibition of the hERG channel (automated whole-cell patch clamp, hERG CHO-K1 cell line)", "assay_type": "cell-based", "details": "0.1 μM, 1 μM, and 10 μM; 5 min at room temperature", "method": "Inhibition of the hERG Channel. The experiments were performed by Eurofins Panlabs (Redmond, Wash. 98052, USA). hERG CHO-K1 cell line was used. The test concentrations were 0.1 μM, 1 μM, and 10 μM. The incubation time was 5 min at room temperature, cumulatively. The detection method used an automated whole-cell patch clamp. The experiments were duplicated, and the % inhibition of the tail current was averaged (FIG. 7)."}}, "note": "Structures can show the parent of a compound that is named as a salt."}
{"smiles": "N[C@H]1C=C(C(=O)O)CC1=C(F)F", "note": "[Compound 1, (S)-3-Amino-4-(difluoromethylenyl)cyclopent-1-ene-1-carboxylic acid Hydrochloride]", "values": [{"measurement": "inhibition or induction of CYP 2B6", "setting": "[1]", "value": "does not inhibit or induce"}, {"measurement": "KI (inactivation)", "setting": "[2]", "value": 3.3, "unit": "µM"}, {"measurement": "suppressing the release of dopamine in the NAcc following a cocaine or nicotine challenge, compared with CPP-115", "setting": "[3]", "value": "superior to CPP-115"}, {"measurement": "cocaine-induced elevations in dopamine", "setting": "[3]; 1 given prior to cocaine, 11C-raclopride microPET", "value": "blocks"}, {"measurement": "nicotine-induced elevations in dopamine", "setting": "[3]; 1 given prior to nicotine, 11C-raclopride microPET", "value": "blocks"}, {"measurement": "inhibition or induction of CYP 2C19", "setting": "[4]", "value": "does not inhibit or induce"}, {"measurement": "fraction unbound", "setting": "[5]", "value": 0.73}, {"measurement": "inhibition or induction of CYP 2D6", "setting": "[6]", "value": "does not inhibit or induce"}, {"measurement": "metabolic stability in HLM", "setting": "[7]", "value": "stable"}, {"measurement": "inhibition of the activity of the hERG channel", "setting": "[8]", "value": "does not inhibit"}]}
